Experiment [1] deals with hematopoietic stem cells (LSK cells) in blood. Put plainly: Hematopoietic stem cell mobilisation, sequential G-CSF, AMD3100 and compound 240. It is filed as in vivo. As to conditions: compound 240 i.v. 15 mg/kg 30 min after AMD3100 s.c. 5 mg/kg, after G-CSF 2.5 μg s.c.; C57BL/6 mice; FIG. 5. How it is done:
During cancer treatment, patients receive injections of a cytokine (G-CSF) mobilising stem cells. These stem cells are then collected from the peripheral blood using an apheresis machine. Apheresis is usually performed for several days until enough stem cells have been collected to support treatment with high-dose chemotherapy and/or radiotherapy. In the experiments of the present invention, different doses (5, 15 and 30 mg/kg body weight (bw)) and administration routes (intraperitoneal, intravenous and subcutaneous) were tested along time course experiments in mice (30 min, 1 h, 3 h and 5 h).
C57BL/6 mice (8-10 weeks old, obtained from Jackson Laboratory, USA) were housed 15 days in the CEA/DSV/iRCM animal facilities. Animal care was in accordance with French Government procedures (Services Veterinaires de la Sante et de la Production Animale, Ministere de l'Agriculture, France).
i) intravenously: Anesthetized mice were placed on their left side. Injection of 100 μl of compound was performed with insulin syringe into the retro-orbital sinus of the right eye of mice. […]
Two months aged-C57BL/6 mice were injected s.c. with 2.5 μg of G-CSF twice a day for 2 days. […] White blood cells were counted and labeled with lineage-PE-Cy7 (L), Sca-PE (S), and cKit-APC (K) antibodies for data acquisition by cytometry. […]

For experiment [2], the system named is FGF-2-induced NHDF (Normal Human Dermal Fibroblast) cell proliferation. Put plainly: FGF-2-induced NHDF proliferation assay. In kind it is cell-based. As to conditions: compound 0.1 to 30 μM. How it is done: The activities of the compounds of the present invention were tested using a proliferation assay, such as the one described by N. Ali et al., J Pharmacol Sci, 2005, 98, 130-141. A defined number of cells is seeded in each well of a culture plate. In order to stimulate cell proliferation, a growth factor is added in some wells, while others remain unstimulated (basal proliferation conditions). To monitor the effects of substances of interest (oligosaccharides compounds according to the present invention) on basal and growth factor-induced cell proliferation, substances of interest are added at different concentrations (i.e. 0.1, 0.3, 1, 3, 10 or 30 μM) in presence or absence of the growth factor, respectively. After an incubation period of 24 hours, the total number of cells is estimated in all samples (generally through an indirect method, such as incorporation of radioactivity into the newly synthesised DNA or colorimetric assays based on cellular enzyme activities or metabolite production). The total number of cells for the control sample in which no substance of interest nor growth factor have been added is set to 1. The total number of cells in all the other samples is compared to this value in order to obtain the relative proliferation index.
Typically, cells are seeded in 48 or 96-well plates. After 2 h (i.e. the time required for cells to adhere to the support) the normal culture media is replaced by a minimal essential culture media in which cells are grown for 24 h (starvation period). This step is used to reduce cell growth (cell metabolism is slowed down in order to better visualise the growth factor stimulation effect) before adding an angiogenic protein, such as a growth factor i.e. FGF-2 or PDGF-β. No growth factor is added in basal proliferation conditions (independently of the presence or absence of the oligosaccharide of the present invention). […]
Following addition of the angiogenic protein (growth factor) over a 24 h stimulation period, a commercial reagent containing a substrate for a cellular enzyme is added and incubated for couple of hours. The degradation of the substrate by the enzyme leads to the production of a coloured product which is titrated by absorbance measurement. […]
In the following experiments the effects of compounds 240 and 241 (concentrations from 0.1 to 30 μM) were evaluated on FGF-2-induced NHDF (Normal Human Dermal Fibroblast) cell proliferation. […]

On to `C#CCCCOC1OC(COS(=O)(=O)[O-])C(OC2OC(C(=O)[O-])C(OC3OC(COS(=O)(=O)[O-])C(OC4OC(C(=O)[O-])C(OC5OC(COS(=O)(=O)[O-])C(OC6OC(C(=O)[O-])C(OC7OC(COS(=O)(=O)[O-])C(OC8OC(C(=O)[O-])C(OCc9ccccc9)C(OCc9ccccc9)C8OS(=O)(=O)[O-])C(OCc8ccccc8)C7NS(=O)(=O)[O-])C(OCc7ccccc7)C6OS(=O)(=O)[O-])C(OCc6ccccc6)C5NS(=O)(=O)[O-])C(OCc5ccccc5)C4OS(=O)(=O)[O-])C(OCc4ccccc4)C3NS(=O)(=O)[O-])C(OCc3ccccc3)C2OS(=O)(=O)[O-])C(OCc2ccccc2)C1NS(=O)(=O)[O-].[Na+].[Na+].[Na+].[Na+].[Na+].[Na+].[Na+].[Na+].[Na+].[Na+].[Na+].[Na+].[Na+].[Na+].[Na+].[Na+]` (stereo not drawn) [Compound 240], for which, in experiment [1], the “HSCs mobilized, times more than with G-CSF+AMD3100 combination” value was “About 3 times”. The “inhibition of FGF-2-induced fibroblast proliferation” value in experiment [2] (FGF-2 5 ng/ml, FIGS. 6-7) is given as “inhibit FGF-2-induced fibroblast proliferation (starting in the micromolar range)”. For the same molecule, the “basal NHDF proliferation” value in experiment [2] (control conditions, no growth factor) was “did not seem to be affected”.

The values above are taken from patent publication US20110166078A1, “OLIGOSACCHARIDE COMPOUNDS FOR USE IN MOBILISING STEM CELLS” (ENDOTIS PHARMA, priority 2008, published 2011).
